Experimental data reported in US6964983B2, “Compounds that modulate PPAR activity and methods for their preparation” (Warner-Lambert Company, LLC, priority 2002, dated 2005).

Legend:
hPPARβ = target: T1, hPPARβ (Homo sapiens, UniProt Q03181); assay: Transient transfection assay in HepG2 cells, Gal4-hPPARβ chimeric receptor, luciferase reporter; assay type: cell-based; conditions: Hep G2-hBeta EC50, 24 hours incubation; read-out: EC50β nM (Group)
T1 sequence (Q03181 171-441 limits assumed): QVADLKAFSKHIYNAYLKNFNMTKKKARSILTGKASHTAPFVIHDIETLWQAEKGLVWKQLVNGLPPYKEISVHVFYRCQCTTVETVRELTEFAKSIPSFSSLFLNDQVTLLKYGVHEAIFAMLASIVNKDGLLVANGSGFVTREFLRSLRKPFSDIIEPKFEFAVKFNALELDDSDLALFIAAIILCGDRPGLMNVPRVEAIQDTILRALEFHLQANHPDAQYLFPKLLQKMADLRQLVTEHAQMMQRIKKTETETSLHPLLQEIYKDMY
Method: (§1) 1. Test A. Transient Transfections Assay using the HepG2 Hepatoma Cell Line.
(§2) HepG2 cells were transiently transfected with an expression plasmids encoding hPPARα, hPPARβ or mPPARγ chimeric receptors and a reporter containing the yeast upstream activating sequence (UAS) upstream of the viral E1B promoter controlling a luciferase reporter gene. In addition, the plasmid pRSVβ-gal was used to control for transfection efficiency. HepG2 cells were grown in DMEM supplemented with 10% FBS and 1 μM non-essential amino acid. On the first day, cells were split into 100 mm dishes at 2.5×10^6/dish and incubated overnight at 37° C./5% CO2. On the second day the cells were transiently transfected with plasmid DNA encoding a chimeric receptor, the luciferase reporter gene; and β-gal. For each 100 mm dish, 15 μg of lucifease reporter (PG5E1b) DNA, 15 μg of Gal4-PPAR chimeric receptor DNA, and 1.5 μg of β-gal plasmid DNA were mixed with 1.4 ml of opti-MEM in the tube. 28 μl of LipoFectamine-2000 reagent was added to 1.4 ml of opti-MEM in the tube, and incubate for 5 min at RT. The diluted Lipofectamine-2000 reagent was combined with the DNA mixture, and incubate for 20 min at RT. After fresh medium was added to each 100 mm dish of cells, 2.8 ml of Lipofectamine2000-DNA mixture was added dropwise to the 100 mm dish containing 14 ml of medium, and incubate 37° C. overnight. On day three cells were trypsinized off the 100 mm dishes and re-plated on 96 well plates. Cells were plated at 2.5×10^4 cells per well in 150 μl of media and 50 μl of compound diluted by media was added. The test compound added were in the range from 50 μM to 50 pM. After addition of compounds, the plates were incubated at 37° C. for 24 hours. Subsequently cells were washed with once with 100 μl of PBS, lysed, and processed for measuring luciferase and β-gal activity using Dual-Light luciferase kit from Tropix ®, according to the manufacturer's recommendations, on an EG&G Bethold MicroLumat LB96P luminometer. EC50 values were obtained using the GraphPad Prism™ program.

hPPARα = target: T2, hPPARα (Homo sapiens, UniProt Q07869); assay: Transient transfection assay in HepG2 cells, Gal4-hPPARα chimeric receptor, luciferase reporter; assay type: cell-based; conditions: Hep G2-hAlpha EC50, 24 hours incubation; read-out: EC50α nM (Group)
T2 sequence (Q07869 200-468 limits assumed): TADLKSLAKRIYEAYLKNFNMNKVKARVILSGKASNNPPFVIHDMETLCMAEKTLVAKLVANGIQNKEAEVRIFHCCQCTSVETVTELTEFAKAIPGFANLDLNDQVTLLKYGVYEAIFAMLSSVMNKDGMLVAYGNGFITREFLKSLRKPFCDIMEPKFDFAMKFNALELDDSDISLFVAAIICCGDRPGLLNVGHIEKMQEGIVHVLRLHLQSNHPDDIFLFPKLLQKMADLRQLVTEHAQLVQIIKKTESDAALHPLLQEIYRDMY
Method: as §1, §2

| Structure (SMILES) | EC50 (hPPARβ) [nM] | EC50 (hPPARα) [nM] | melting point [°C] |
| --- | --- | --- | --- |
| COc1cc(OCC(=O)O)c(C)cc1SCc1ccc(-c2ccc(Cl)cc2Cl)cc1 [Example 7, [4-(2′,4′-Dichloro-biphenyl-4-ylmethylsulfanyl)-5-methoxy-2-methyl-phenoxy]-acetic acid] | < 300 | < 300 | – |
| COc1cc(OCC(=O)O)c(C)cc1SCc1ccc(-c2ccc(F)cc2)cc1 [Example 10, [4-(4′-Fluoro-biphenyl-4-ylmethylsulfanyl)-5-methoxy-2-methyl-phenoxy]-acetic acid] | < 300 | 300 to 500 | – |
| COc1cc(OCC(=O)O)c(C)cc1SCc1ccc(-c2cccc(OC(F)(F)F)c2)cc1 [Example 11, [5-Methoxy-2-methyl-4-(3′-trifluoromethoxy-biphenyl-4-ylmethylsulfanyl)-phenoxy]-acetic acid] | < 300 | 500 to 1000 | – |
| Cc1cc(SCc2ccc3c(c2)Cc2ccccc2-3)ccc1OCC(=O)O [Example 17] | 1000 to 2000 | 2000 to 5000 | – |
| COc1cc(OCC(=O)O)ccc1SCc1ccc(-c2ccc(C(F)(F)F)cc2)cc1 [Example 21, [3-Methoxy-4-(4′-trifluoromethyl-biphenyl-4-ylmethylsulfanyl)-phenoxy]-acetic acid] | < 300 | < 300 | – |
| Cc1cc(SCc2ccc(-c3ccc(C(F)(F)F)cn3)cc2)ccc1OCC(=O)O [Example 30, {2-Methyl-4-[4-(5-trifluoromethyl-pyridin-2-yl)-benzylsulfanyl]-phenoxy}-acetic acid] | 1000 to 2000 | 1000 to 2000 | – |
| COc1cc(OCC(=O)O)c(C)cc1SCc1cc(-c2ccc(C(F)(F)F)cc2)no1 [Example 46, {5-Methoxy-2-methyl-4-[3-(4-trifluoromethyl-phenyl)-isoxazol-5-ylmethylsulfanyl]-phenoxy}-acetic acid] | < 300 | < 300 | – |
| O=C(O)COc1ccc(SCc2ccc(OCc3cc(Cl)ccc3Cl)cc2)c2c1CCCO2 [Example 85, {8-[4-(2,5-Dichloro-benzyloxy)-benzylsulfanyl]-chroman-5-yloxy}-acetic acid] | 1000 to 2000 | – | 98 to 100 |
| O=C(O)COc1ccc(CCc2ccc(-c3ccc(C(F)(F)F)cc3)cc2)c2c1CCC2 [Example 91, {7-[2-(4′-Trifluoromethyl-biphenyl-4-yl)-ethyl]-indan-4-yloxy}-acetic acid] | 2000 to 5000 | – | 188 to 190 |
| O=C(O)COc1ccc(SCc2ccc(-c3ccc(C(F)(F)F)cc3)cc2)c2c1CCCO2 [Example 93, [8-(4′-Trifluoromethyl-biphenyl-4-ylmethylsulfanyl)-chroman-5-yloxy]-acetic acid] | 500 to 1000 | – | 170 to 172 |
| CCCCc1cc(SCc2ccc(-c3ccc(C(F)(F)F)cc3)cc2)ccc1OCC(=O)O [Example 100, 2-[2-butyl-4-({4-[4-(trifluoromethyl)phenyl]phenyl}methylthio)phenoxy]acetic acid] | 500 to 1000 | – | 155 to 157 |

Results, then the compound that gave them:

| EC50 (hPPARβ) [nM] | EC50 (hPPARα) [nM] | melting point [°C] | Structure (SMILES) |
| --- | --- | --- | --- |
| < 300 | 2000 to 5000 | – | COc1cc(OCC(=O)O)c(C)cc1SCc1cc(-c2ccc(Cl)cc2)on1 [Example 41, {4-[5-(4-Chloro-phenyl)-isoxazol-3-ylmethylsulfanyl]-5-methoxy-2-methyl-phenoxy}-acetic acid] |
| – | 2000 to 5000 | – | Cc1cc(SCc2cc(-c3ccc(C(F)(F)F)cc3)on2)ccc1OCC(=O)O [Example 42, {2-Methyl-4-[5-(4-trifluoromethyl-phenyl)-isoxazol-3-ylmethylsulfanyl]-phenoxy}-acetic acid] |
| < 300 | 500 to 1000 | – | COc1cc(OCC(=O)O)c(C)cc1SCc1cc(-c2ccc(C(F)(F)F)cc2)on1 [Example 43, {5-Methoxy-2-methyl-4-[5-(4-trifluoromethyl-phenyl)-isoxazol-3-ylmethylsulfanyl]-phenoxy}-acetic acid] |
| 500 to 1000 | > 5000 | – | O=C(O)COc1ccc(SCc2cc(-c3ccc(C(F)(F)F)cc3)on2)c2c1CCC2 [Example 44, {7-[5-(4-Trifluoromethyl-phenyl)-isoxazol-3-ylmethylsulfanyl]-indan-4-yloxy}-acetic acid] |
| 500 to 1000 | – | 140 to 142 | O=C(O)COc1ccc(SCc2ccc(OCc3ccc(OC(F)(F)F)cc3)cc2)c2c1CCC2 [Example 75, {7-[4-(4-Trifluoromethoxy-benzyloxy)-benzylsulfanyl]-indan-4-yloxy}-acetic acid] |
| 1000 to 2000 | – | 125 to 127 | O=C(O)COc1ccc(SCc2ccc(OCc3ccc(F)cc3C(F)(F)F)cc2)c2c1CCC2 [Example 76, {7-[4-(4-Fluoro-2-trifluoromethyl-benzyloxy)-benzylsulfanyl]-indan-4-yloxy}-acetic acid] |
| 300 to 500 | – | 134 to 135 | O=C(O)COc1ccc(SCc2ccc(OCc3cc(Cl)cc(Cl)c3)cc2)c2c1CCC2 [Example 77, {7-[4-(3,5-Dichloro-benzyloxy)-benzylsulfanyl]-indan-4-yloxy}-acetic acid] |
| 300 to 500 | – | 150 to 151 | COc1ccc(CSc2ccc(OCC(=O)O)c3c2CCC3)cc1OCc1ccc(C(F)(F)F)cc1 [Example 78, {7-[4-Methoxy-3-(4-trifluoromethyl-benzyloxy)-benzylsulfanyl]-indan-4-yloxy}-acetic acid] |
| 1000 to 2000 | – | 121 to 122 | O=C(O)COc1ccc(SCc2cccc(OCc3ccc(Cl)c(C(F)(F)F)c3)c2)c2c1CCC2 [Example 80, {7-[3-(4-Chloro-3-trifluoromethyl-benzyloxy)-benzylsulfanyl]-indan-4-yxoly}-acetic acid] |
| 2000 to 5000 | – | 161 to 162 | O=C(O)COc1ccc(SCc2cc(-c3ccccc3Cl)on2)c2c1CCC2 [Example 87, {7-[5-(2-Chloro-phenyl)-isoxazol-3-ylmethylsulfanyl]-indan-4-yloxy}-acetic acid] |
| > 5000 | – | 151 to 152 | Cc1onc(-c2c(Cl)cccc2Cl)c1CSc1ccc(OCC(=O)O)c2c1CCC2 [Example 88, {7-[3-(2,6-Dichloro-phenyl)-5-methyl-isoxazol-4-ylmethylsulfanyl]-indan-4-yloxy}-acetic acid] |
| 1000 to 2000 | – | 166 to 168 | O=C(O)COc1ccc(SCc2cc(-c3ccc(C(F)(F)F)cc3)no2)c2c1CCC2 [Example 89, {7-[3-(4-Trifluoromethyl-phenyl)-isoxazol-5-ylmethylsulfanyl]-indan-4-yloxy}-acetic acid] |
| 500 to 1000 | – | 170 to 172 | O=C(O)COc1ccc(SCCc2ccc(-c3ccc(C(F)(F)F)cc3)cc2)c2c1CCC2 [Example 90, {7-[2-(4′-Trifluoromethyl-biphenyl-4-yl)-ethylsulfanyl]-indan-4-yloxy}-acetic acid] |
| 2000 to 5000 | – | 158 to 160 | O=C(O)COc1ccc(SCc2cc(-c3ccc(Cl)cc3)no2)c2c1CCC2 [Example 98, {7-[3-(4-Chloro-phenyl)-isoxazol-5-ylmethylsulfanyl]-indan-4-yloxy}-acetic acid] |
| 300 to 500 | – | 180 to 182 | Cc1cc(SCc2cc(-c3ccc(C(F)(F)F)cc3)on2)c(Cl)cc1OCC(=O)O [Example 99, {5-Chloro-2-methyl-4-[5-(4-trifluoromethyl-phenyl)-isoxazol-3-ylmethylsulfanyl]-phenoxy}-acetic acid] |
